Results as given in patent US6284910A, “Farnesyl pyrophosphate analogs” (University of Kentucky Research Foundation, priority 1999, dated 2001).
Entries after “also recorded” stand apart in the source; their conditions may differ.

Columns and labels:
FTase [1] = target: T1, FTase (Rattus norvegicus, UniProt Q02293+Q04631); test: Continuous fluorescence assay: transfer of FPP and analogs to N-dansyl-GCVLS by FTase; type: biochemical; conditions: excitation 340 nm, 505 nm
Excerpt: FIG. 8. Progress Curves for Transfer of FPP and Analog Pyrophosphates to Dansyl-GCVLS by FTase. The reaction is monitored for fluorescence intensity at 505 nm with excitation at 340 nm. (a) FPP, (b) AGPP, (c) 8-(pentafluoroaniline)geranyl pyrophosphate, (d) blank.
Continuous Fluorescence Assay for Analog Transfer: An important requirement for these studies is the development of a rapid technique for evaluating whether FPP analogs that are efficiently and appropriately transferred to target substrates by FTase. The analogs were evaluated for their ability to be transferred by FTase to the pentapeptide N-dansyl-GCVLS in a continuous fluorescence assay. (See references 78, 79, infra). There is a time dependent increase in the fluorescence of the dansyl group due to the local increase in hydrophobicity as the adjacent cysteine residue is isoprenylated. […] (FIG. 8).

[2] = target: T2, recombinant rat brain FTase (Rattus norvegicus, UniProt Q02293+Q04631); test: Inhibition of FTase-catalyzed transfer of [^3 H]farnesyl from [^3 H]FPP to H-Ras; type: biochemical; conditions: concentrations as high as 250 μM
T2 construct: 6xHis (N); made in house; host or cells: Sf9 insect cells (baculovirus)
Method: FIG. 2. Differential Inhibition of Farnesyltransferase and CAAX Geranylgeranyltransferase by AGPP. The assay mixtures contained (in a final volume of 25 μl) various components as described in "Experimental Procedures". After incubation for 15 min at 37° C., the amount of [^3 H]prenyl group transferred to the appropriate protein substrate [H-Ras (CVLS) for FTase and H-Ras (CVLL) for CAAX GGTase] was measured by precipitation with ethanol-HCl. The assays contained 10 ng recombinant rat FTase, 5 μM H-Ras, and 0.6 μM [^3 H]FPP (33,000 dpm/pmol) or 100 ng recombinant rat CAAX GGTase, 5 μM H-Ras CVLL, and 1 μM [^3 H]GGPP (33,000 dpm/pmol) and the indicated concentration of unlabeled AGPP. The 100% of control values were 1.1 and 5.5 pmol of [^3 H]farnesyl or [^3 H]geranylgeranyl transferred per tube. Each value is the average of duplicate incubations and is representative of two separate experiments.
FIG. 3. Inhibition of Farnesyltransferase by AGPP and I-AGPP. The enzymatic activity was measured in the presence of the various concentrations of either AGPP or I-AGPP as described in […]. The 100% control values were 1.9 and 2 pmol. Each value is the average of duplicate incubations and is representative of three separate experiments.
(§1) Assay for Farnesyltransferase Activity--Farnesyltransferase activity was assayed by measuring the amount of [^3 H]farnesyl or [^3 H]anilinogeranyl transferred from [^3 H]FPP or [^3 H]AGPP to recombinant p21^H-ras, as described previously (31). Unless otherwise stated, each reaction mixture contained the following components in a final volume of 25 μl: 50 mM Tris (pH 7.4), 20 mM KCl, 0.2% octyl β-glucopyranoside, 1 mM dithiothreitol, 10-20 ng recombinant FTase, 5 μM p21^Ha-ras, 3 mM MgCl2, 50 μM ZnCl2, and 0.6 μM [^3 H]FPP (33,000 dpm/pmol; American Radiochemical Co.) or 0.1-5 μM [^3 H]AGPP (37,400 dpm/pmol). Following incubation for the indicated times at 37° C., the amount of [^3 H]prenyl transferred was measured by ethanol-HCl precipitation and filtration on glass fiber filters with modification as previously described (19). A blank value was determined in parallel incubation mixtures containing no enzyme. This blank value was subtracted from each reaction before calculating pmol [^3 H]prenyl transferred.
Inhibition of Farnesyltransferase by AGPP--AGPP was tested for its ability to inhibit recombinant rat brain FTase activity in vitro. AGPP inhibited FTase in a concentration dependent manner with an IC50 value of 0.6 μM (FIG. 2).
Kinetic analyses were carried out to investigate the mechanism of FTase inhibition by AGPP. […] The same Km value was observed when the Lineweaver-Burke plot was analyzed under different Ras and AGPP concentrations in the presence of a constant concentration of FPP. […] AGPP inhibition is reversible, since transfer of [^3 H]-FPP by FTase to Ras was restored by isolating the farnesyltransferase by gel filtration chromatography after preincubation in the presence of 50 μM AGPP (data not shown).
The assays contained 10 ng recombinant rat FTase, 5 μM H-Ras, and 0.6 μM [^3 H]FPP (33,000 dpm/pmol) or 100 ng recombinant rat CAAX GGTase, 5 μM H-Ras CVLL, and 1 μM [^3 H]GGPP (33,000 dpm/pmol) and the indicated concentration of unlabeled AGPP. The 100% of control values were 1.1 and 5.5 pmol of [^3 H]farnesyl or [^3 H]geranylgeranyl transferred per tube.

FTase [3] = target: T1, FTase; test: Inhibition of FTase-catalyzed transfer of [^3 H]AGPP to p21^H-ras; type: biochemical; set-up: H-Ras is only the protein substrate; conditions: non-radiolabeled compound, time and concentration dependent transfer
Method: as §1
(§2) The observed inhibition kinetics could be a manifestation of the ability of AGPP to act as an alternative substrate for FTase. To evaluate the potential of AGPP to serve as a substrate of FTase, [^3 H]-AGPP was prepared by a similar route as described above, incorporating tritium with a specific activity of 17 Ci/mmol (synthesis to be reported elsewhere). […] The incorporated radioactivity was detected as a band of the expected molecular weight of farnesylated p21^H-ras on SDS-polyacrylamide gels (FIG. 4A, inset). […] The concentration of [^3 H]AGPP that gave half-maximal reaction velocity was approximately 0.5 μM (FIG. 4B).

FTase [4] = target: T1, FTase; test: FTase-catalyzed transfer of labeled FPP analogs to p21^H-ras (substrate assay); type: biochemical; set-up: H-Ras is only the protein substrate; conditions: in vitro, 37° C.
Method: FIG. 4. Transfer of Anilinogeranyl from [^3 H]AGPP to p21^Ha-ras by Farnesyltransferase. (A) Each reaction contained 1 μM [^3 H]AGPP (37,400 dpm/pmol) and 10 ng of recombinant FTase in the absence (triangles) or presence (circles) of 5 μM p21^Ha-ras Duplicate samples were incubated for the indicated times at 37° C., and ethanol-HCl precipitated radioactivity was measures as described under "Experimental Procedures". […] The gel was treated with Amplify solution (Amersham), dried, and exposed to Kodak X-OMAT AR film for 2 days at -70° C. The migration of molecular weight markers placed in a adjacent lane is shown. (B) The AGPP substrate saturation curve for FTase was determined by varying the amount of [^3 H]AGPP in the standard reaction described above. Assays were carried out in duplicate for 30 min at 37° C., and the ethanol-HCl precipitable radioactivity measured. The data is representative of three independent experiments.
FIG. 5. […] Farnesyltransferase (10 ng) was incubated in a final volume of 25 μl in the presence of 1.0 μM [^3 H]AGPP or [^3 H]FPP and 5 μM wild-type p21^Ha-ras. After incubation for 30 min at 37° C., the amount of [^3 H]prenyl transferred to p21^Ha-ras was determined as described under "Experimental Procedures". Each value is the average of duplicate incubations and is representative of five separate experiments.
as §1, §2
FIG. 5 depicts transfer of unnatural anilinogeranyl lipid from [^3 H]AGPP and transfer of farnesyl lipid from [^3 H]FPP to H-Ras by FTase. Farnesyltransferase (10 ng) was incubated in a final volume of 25 μl in the presence of 1.0 μM [^3 H]AGPP or [^3 H]FPP and 5 μM wild-type H-Ras. After incubation for 30 min. at 37° C., the amount of [^3 H]prenyl transferred to H-Ras was determined by ethanol-HCl precipitation and scintillation counting. Each value is the average of duplicate incubations and is representative of five separate experiments.

Xenopus laevis oocytes = test: Xenopus laevis oocyte maturation assay (GVBD) with oncogenic H-Ras in mevinolin-treated oocytes; type: cell-based; conditions: 50 μM mevinolin, overnight
Excerpt: Recently, a novel methodology involving the microinjection of known amounts of Ras into Xenopus oocytes has been described (see references 24, 45, infra), thereby permitting a quantitative structure-function analysis of H-Ras farnesyl-group for signal transduction in vivo. The approach makes use of enzymatic methods to attach structurally related farnesyl analogs onto the prenylation site of H-Ras combined with microinjection procedures to study their in vivo function. Oocytes are naturally arrested at the G2-M boundary of the first meiotic cell division. (See reference 80, infra). When microinjected with oncogenic H-Ras, oocytes reenter the cell cycle, which is monitored by germinal vesicle breakdown (GVBD) by the appearance of a white spot in the animal hemisphere. GVBD is accompanied by activation of the mitogen-activated protein kinase (MAPK) cascade. (See 81, 82, infra). […] (See references 24, 45, infra). These biochemical effects are strictly dependent on in vivo farnesylation of the injected H-Ras protein since mutation of the CaaX prenylation motif, blocking isoprenoid biosynthesis, and inhibition of FTase in oocytes all suppress these activities. (See references 83-85, infra). Thus, the system provides a method to study the in vivo role of prenylation by analyzing the ability of FPP analogues to rescue H-Ras biological functions in isoprenoid-depleted oocytes. […] Oocytes were isolated from X. laevis females and allowed to recover overnight. (See 24, 45, infra).

C/C(=C\COP(=O)(O)OP(=O)(O)O)CCCOCc1ccccc1 [analog 12, 6-benzyloxy-3-methyl-2-hexene pyrophosphate]
time-dependent increase in dansyl fluorescence / transfer to dansyl peptide, in words (FTase [1]): transferred to dansyl peptide by FTase with slow kinetics; also recorded: Time-dependent increases in the fluorescence of the dansyl group

C/C(=C\COP(=O)(O)OP(=O)(O)O)CC/C=C(\C)CNc1c(F)c(F)c(N=[N+]=[N-])c(F)c1F [analog 5, 8-(4-azido-2,3,5,6-tetrafluoroaniline)-3,7-dimethyl-2,6-octadiene pyrophosphate]
time-dependent increase in dansyl fluorescence / transfer to dansyl peptide, in words (FTase [1]): no increase in fluorescence, and are not transferred

C/C(=C\CO)CC/C=C(\C)CNc1ccccc1 [AG-OH, (E,E)-8-Aniline-3,7-dimethyl-2,6-octadien-1-ol]
inhibition of FTase by anilinogeranyl alcohol, in words [2]: did not significantly inhibit | inhibition of transfer of [^3 H]AGPP to p21^H-ras, in words (FTase [3]): not AG-OH or farnesol were found to inhibit

C/C(=C\COP(=O)(O)OP(=O)(O)O)CC/C=C(\C)CNc1c(F)c(F)c(F)c(F)c1F [analog 4, 8-pentafluoroaniline-3,7-dimethyl-2,6-octadiene pyrophosphate]
time-dependent increase in dansyl fluorescence / transfer to dansyl peptide, in words (FTase [1]): Time-dependent increases in the fluorescence of the dansyl group; also recorded: does not change the apparent kinetics of transfer

CC(C)=CCCC(C)=CCCC(C)=CCO [farnesol, reference compound]
inhibition of transfer of [^3 H]AGPP to p21^H-ras, in words (FTase [3]): not AG-OH or farnesol were found to inhibit

CCN(C/C(C)=C/CC/C(C)=C/COP(=O)(O)OP(=O)(O)O)c1c(F)c(F)c(N=[N+]=[N-])c(F)c1F [analog 6, 8-(N-ethyl-4-azido-2,3,5,6-tetrafluoroaniline)-3,7-dimethyl-2,6-octadiene pyrophosphate]
time-dependent increase in dansyl fluorescence / transfer to dansyl peptide, in words (FTase [1]): no increase in fluorescence, and are not transferred

C/C(=C\COP(=O)(O)OP(=O)(O)O)CC/C=C(\C)CNc1ccc(I)cc1 [I-AGPP, 8-(4-iodoaniline)-3,7-dimethyl-2,6-octadiene pyrophosphate]
transfer to p21^H-ras by FTase, in words (FTase [4]): efficient transfer of I-AGPP by FTase to H-Ras | transfer to p21^H-ras by FTase, in words (FTase [4]; listed as 125 I-AGPP): time and substrate dependent manner similar to [^3 H]AGPP

C/C(=C\COP(=O)(O)OP(=O)(O)O)CC/C=C(\C)CNc1ccc([N+](=O)[O-])cc1 [analog 2, 8-(4-nitroaniline)-3,7-dimethyl-2,6-octadiene pyrophosphate]
time-dependent increase in dansyl fluorescence / transfer to dansyl peptide, in words (FTase [1]): Time-dependent increases in the fluorescence of the dansyl group

CC[C@H](C)C(=O)O[C@H]1C[C@@H](C)C=C2C=C[C@H](C)[C@H](CC[C@@H]3C[C@@H](O)CC(=O)O3)[C@H]21 [mevinolin, reference compound]
depletion of endogenous FPP pool (Xenopus laevis oocytes): effectively depletes the endogenous pool of FPP
